These results are taken from patent publication US20240270762A1, “PENICILLIN-BINDING PROTEIN INHIBITORS” (priority 2021, published 2024).

One experiment has as its target T1, A. baumannii PBP1a (Acinetobacter baumannii, UniProt A0ABX6CK30).
T1 sequence (A0ABX6CK30 1-851): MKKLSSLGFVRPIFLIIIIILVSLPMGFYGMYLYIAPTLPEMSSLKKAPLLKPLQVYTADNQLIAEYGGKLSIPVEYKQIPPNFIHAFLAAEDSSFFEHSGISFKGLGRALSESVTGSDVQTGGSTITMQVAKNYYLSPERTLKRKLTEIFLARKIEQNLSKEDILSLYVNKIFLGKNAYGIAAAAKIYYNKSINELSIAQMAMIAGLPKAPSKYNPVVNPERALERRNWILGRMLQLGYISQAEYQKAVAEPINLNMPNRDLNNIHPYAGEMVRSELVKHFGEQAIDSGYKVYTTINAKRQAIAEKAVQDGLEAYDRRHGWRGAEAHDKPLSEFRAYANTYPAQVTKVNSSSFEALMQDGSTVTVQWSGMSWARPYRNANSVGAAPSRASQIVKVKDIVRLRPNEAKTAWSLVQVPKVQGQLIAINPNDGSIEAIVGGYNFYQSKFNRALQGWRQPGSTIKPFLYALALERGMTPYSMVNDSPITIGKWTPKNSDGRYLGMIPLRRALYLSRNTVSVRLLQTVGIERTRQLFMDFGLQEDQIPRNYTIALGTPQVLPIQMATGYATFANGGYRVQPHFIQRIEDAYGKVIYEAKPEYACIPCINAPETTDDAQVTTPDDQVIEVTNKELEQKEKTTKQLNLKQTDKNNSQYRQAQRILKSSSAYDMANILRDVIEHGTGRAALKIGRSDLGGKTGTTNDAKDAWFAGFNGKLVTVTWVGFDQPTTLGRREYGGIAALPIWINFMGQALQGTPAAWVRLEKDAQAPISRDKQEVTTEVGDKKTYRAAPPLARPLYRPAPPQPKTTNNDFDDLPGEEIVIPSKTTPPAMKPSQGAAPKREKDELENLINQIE
The experiment can be described thus: Bocillin-FL competition binding via gel filtration, A. baumannii PBP1a. Particulars: competition binding assay using Bocillin-FL via gel filtration; read-out: A. baumannii PBP1a Potency. How it is done: (§1) Affinity to A. baumannii PBP1a and PBP2 was assessed a competitive equilibrium binding assay using Bocillin-FL as the reporter molecule. Enzyme was pre-incubated with increasing concentrations of inhibitors, prior to addition of Bocillin and further incubation for 15 minutes. PBP bound with Bocillin-FL was separated by gel filtration using 96-well Zeba Spin size exclusion plates, and the fluorescence measured. The inhibitor affinity (reported as the EC50) was determined by plotting the fraction of PBP bound with Bocillin-FL at each inhibitor concentration against the inhibitor concentration, and fitting the data to the following equation:
(§2) [formula] • where y is the fraction bound at a given inhibitor concentration, ymin is the fraction bound when the enzyme is completely inactivated, ymax is the maximum (uninhibited) fraction bound, n is the Hill coefficient, and x is the inhibitor concentration.

Experiment [1] deals with B. thailandensis ATCC 700388. The experiment can be described thus: microbe, parasite or virus in culture. The class given is cell-based. The note with it: Burkholderia thailandensis, ATCC700388, read-out: Minimum inhibitory concentration (MIC), B. thailandensis ATCC 700388.
A further experiment addresses A. baumannii PBP2 (Acinetobacter baumannii, UniProt D0C8Z9). The experiment can be described thus: Bocillin-FL competition binding via gel filtration, A. baumannii PBP2. How it is done: as §1, §2
Experiment [2] relates to B. humptydooensis ATCC BAA-2767. The experiment can be described thus: microbe, parasite or virus in culture. The class given is cell-based. The note with it: Burkholderia humptydooensis, ATCCBAA2767, read-out: Minimum inhibitory concentration (MIC), B. humptydooensis ATCC BAA-2767.

Sequence of A. baumannii PBP2 (D0C8Z9 whole entry): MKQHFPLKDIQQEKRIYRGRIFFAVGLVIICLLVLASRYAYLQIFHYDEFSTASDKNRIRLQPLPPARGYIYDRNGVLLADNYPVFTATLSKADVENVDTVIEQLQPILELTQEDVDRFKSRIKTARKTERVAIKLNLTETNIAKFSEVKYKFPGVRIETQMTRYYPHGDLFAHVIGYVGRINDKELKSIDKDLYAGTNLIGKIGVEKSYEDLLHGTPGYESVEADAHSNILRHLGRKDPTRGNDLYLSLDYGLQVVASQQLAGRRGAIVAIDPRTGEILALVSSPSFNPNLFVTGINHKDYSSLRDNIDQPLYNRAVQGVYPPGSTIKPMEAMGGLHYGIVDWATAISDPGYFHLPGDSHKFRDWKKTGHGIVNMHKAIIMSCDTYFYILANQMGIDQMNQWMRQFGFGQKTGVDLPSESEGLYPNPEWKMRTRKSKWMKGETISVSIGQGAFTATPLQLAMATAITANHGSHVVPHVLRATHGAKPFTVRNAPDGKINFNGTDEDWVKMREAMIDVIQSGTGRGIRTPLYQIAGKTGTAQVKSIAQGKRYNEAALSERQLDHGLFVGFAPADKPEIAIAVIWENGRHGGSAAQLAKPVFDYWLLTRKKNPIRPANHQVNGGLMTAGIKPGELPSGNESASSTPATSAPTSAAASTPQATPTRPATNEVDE

With `O=C(O)c1c(F)ccc2c1OB(O)[C@@H](NC(=O)C(NC(=O)N1CCN(C3CCN(Cc4ccc(F)c(O)c4)CC3)C1=O)c1cc(F)c(O)c(O)c1Cl)C2` (single isomer, unassigned) [Example 606], the EC50 is below 10 µM on A. baumannii PBP1a and 10 to 50 µM on A. baumannii PBP2. For the same compound, the MIC in experiment [1] and in experiment [2] was below 1 µg/mL throughout.
On to `O=C(O)c1c(F)ccc2c1OB(O)[C@@H](NC(=O)[C@H](NC(=O)N1CCN(C3CCN(Cc4cc(O)cc(F)c4)CC3)C1=O)c1cc(F)c(O)c(O)c1Cl)C2` (single isomer, unassigned) [Example 607], for which the EC50 was below 10 µM at A. baumannii PBP1a and 10 to 50 µM on A. baumannii PBP2. In addition, the MIC in experiment [1] and in experiment [2] was below 1 µg/mL throughout.
Take `O=C(O)c1c(F)ccc2c1OB(O)[C@@H](NC(=O)[C@H](NC(=O)N1CCN(C3CCN(Cc4cc(O)ccc4F)CC3)C1=O)c1cc(F)c(O)c(O)c1Cl)C2` (single isomer, unassigned) [Example 608]: the EC50 at A. baumannii PBP1a is below 10 µM; at A. baumannii PBP2, 10 to 50 µM. The MIC in experiment [1] and in experiment [2] was below 1 µg/mL in each case.
On to `O=C(O)c1c(F)ccc2c1OB(O)[C@@H](NC(=O)C(NC(=O)N1CCN(C3CCN(Cc4ccc(O)cc4F)CC3)C1=O)c1cc(F)c(O)c(O)c1Cl)C2` (single isomer, unassigned) [Example 611], for which the EC50 at A. baumannii PBP1a was below 10 µM; at A. baumannii PBP2, 10 to 50 µM. Besides, the MIC in experiment [1] and in experiment [2] was below 1 µg/mL throughout.
As for `NCc1cccc(CN2CCC(N3CCN(C(=O)N[C@@H](C(=O)N[C@H]4Cc5ccc(F)c(C(=O)O)c5OB4O)c4cc(F)c(O)c(O)c4Cl)C3=O)CC2)c1` (single isomer, unassigned) [Example 613], the EC50 at A. baumannii PBP1a and at A. baumannii PBP2 was 10 to 50 µM throughout. The MIC in experiment [1] and in experiment [2] was below 1 µg/mL each time.
For the compound `O=C(O)c1c(F)ccc2c1OB(O)[C@@H](NC(=O)C(NC(=O)N1CCN(C3CCN(S(=O)(=O)c4cc(O)cc(O)c4)CC3)C1=O)c1cc(F)c(O)c(O)c1Cl)C2` (stereo partly drawn) [Example 600, (3R)-3-(2-(2-chloro-5-fluoro-3,4-dihydroxyphenyl)-2-(3-(1-((3,5-dihydroxyphenyl)sulfonyl)piperidin-4-yl)-2-oxoimidazolidine-1-carboxamido)acetamido)-7-fluoro-2-hydroxy-3,4-dihydro-2H-benzo[e][1,2]oxaborinine-8-carboxylic acid], the EC50 at A. baumannii PBP1a and on A. baumannii PBP2 was below 10 µM each time. In addition, the MIC in experiment [1] and in experiment [2] was above 128 µg/mL throughout.
